# According to patent US20190070128A1, “USE OF CANNABIDIVARIN IN THE TREATMENT OF AUTISM SPECTRUM DISORDER, ASSOCIATED DISORDERS AND SCHIZOPHRENIA” (GW Research Limited, priority 2016, published 2019):
# Entries after “also recorded” stand apart in the source; their conditions may differ.
# Assays:
# Assay type in all cases: in vivo, mouse
# Fmr1 KO and WT mice = experiment: susceptibility to audiogenic seizures in Fmr1 KO and WT mice (PND21); details: for audiogenic seizures: FXS mice
# Method: This trait was evaluated in PND21 mice after acute administration of the compounds or its vehicle, 30 min before starting the procedure. To measure audiogenic seizure sensitivity mice were placed individually into a novel environment, a glass cylinder (40 cm high, 16 cm diameter) and allowed to explore for 1 min. Next, a bell (100 dB) was rung for 30 sec and seizure activity scored according to the following scale: no response, 0; wild running, 1; clonic seizure, 2; tonic seizure, 3; status epilepticus/respiratory arrest/death, 4.
# On postnatal day 21 (PND21) WT and Fmr1 KO mice were injected with CBDV (2, 10, 20 or 100 mg/kg) or vehicle, 30 min before exposure to a bell ring (100 dB). Mice exposed to this noise for 30 sec ceased from their normal exploratory behaviour and reacted with gradually to wild-running, clonic seizure, tonic seizure or death. The maximum response was annotated for each mouse as detailed in Table 2 below. A score was calculated according to the severity of the symptoms as explained in the Methods section.
# Ube3am-/p+ (AS) mice [1] = experiment: novel object recognition in Angelman syndrome mice; details: 20 mg/kg i.p., age 7-8 weeks, vs AS vehicle
# Method: (§1) Heterozygous mice with maternal deficiency of Ube3A (Ube3am−/p+) and wild type (Ube3am+/p+) were purchased from The Jackson Laboratory (Jackson code: B6.12957-Ube3a tm1Alb/J) and maintained in a C57BL/6 background.
# (§2) Drugs were dissolved in 1:1:18 ethanol:cremophor:0.9% saline, for intraperitoneal (i.p.) administration. Drug treatment was performed daily for 35 days. CBDV was administered at 20 mg/kg.
# Novel Object Recognition: The novel object recognition assesses recognition memory in mice. The experiment started with the habituation period, during which mice were allowed to freely explore for 1 hour the apparatus which consists of a rectangular open box (40×30×30 cm width×length×height) made of grey polyvinyl chloride (PVC) illuminated by a dim light. The day after each mouse was allowed to explore two identical objects positioned in the back left and right corners for 5 min (acquisition). A video camera recorded the time spent on exploration of each object. […] The behaviour of mice was analyzed by an observer blind to the treatment. Data are expressed as percentage of recognition index (RI %), which was calculated as the percentage of the time spent exploring the novel object/time spent exploring the novel object+time spent exploring the familiar object×100.
# MeCP2 KO mice = experiment: symptom scoring in MeCP2 KO mice
# Method: Starting from PND 28, mice received a daily intraperitoneal injection of CBDV (or vehicle) at the dose of 2, 20 and 200 mg/kg. Animals were then scored every other day to evaluate the effect of CBDV treatment on motor symptoms (hindlimb clasping, gait, mobility) as well as neurological signs and general conditions (breathing abnormalities, tremors and general condition) present in MeCP2 knockout (KO) mice.
# Each of the six symptoms was scored from 0 to 2 (0 corresponds to the symptom being absent or the same as in the wild type (WT) animal; 1 when the symptom was present; 2 when the symptom was severe).
# Mobility: the mouse is observed when placed on bench, then when handled gently. 0 =as WT. 1=reduced movement when compared with WT: extended freezing period when first placed on bench and longer periods spent immobile. 2=no spontaneous movement when placed on the bench; mouse can move in response to a gentle prod or a food pellet placed nearby.
# Gait: 0=as WT. 1=hind legs are spread wider than WT when walking or running with reduced pelvic elevation, resulting in a ‘waddling’ gait. 2=more severe abnormalities: tremor when feet are lifted, walks backward or ‘bunny hops’ by lifting both rear feet at once.
# Hindlimb clasping: mouse observed when suspend by holding base of the tail. 0=legs splayed outward. 1=hindlimbs are drawn toward each other (without touching) or one leg is drawn into the body. 2=both legs are pulled in tightly, either touching each other or touching the body.
# Tremor: mouse observed while standing on the flat palm of the hand. 0=no tremor. 1=intermittent mild tremor. 2=continuous tremor or intermittent violent tremor.
# Breathing: movement of flanks observed while animal is standing still. 0=normal breathing. 1=periods of regular breathing interspersed with short periods of more rapid breathing or with pauses in breathing. 2=very irregular breathing-gasping or panting.
# General condition: mouse observed for indicators of general well-being such as coat condition, eyes and body stance. 0=clean shiny coat, clear eyes, and normal stance. 1=eyes dull, coat dull/un-groomed, and somewhat hunched stance. 2=eyes crusted or narrowed, piloerection, and hunched posture.
# Ube3am-/p+ (AS) mice [2] = experiment: rotarod test in Angelman syndrome mice; details: chronic treatment (30 days), 20 mg/kg i.p., vs AS vehicle
# Method: as §1, §2
# Rotarod: The rotarod test assesses balance and motor coordination of mice. Mice have been measured for the time (in seconds) of equilibrium before falling on a rotary cylinder by a magnet that, activated from the fall of the mouse on the plate, allows to record the time of permanence on the cylinder. […] The animals were analysed by 2 separate tests at 1-h interval in the same day.
# [3] = WT, CBDV 2 mg/kg, n = 6, acute (30 min)
# [4] = WT, CBDV 10 mg/kg, n = 5, acute (30 min)
# [5] = WT, CBDV 20 mg/kg, n = 6, acute (30 min)
# [6] = WT, CBDV 100 mg/kg, n = 6, acute (30 min)
smiles,measurement,setting,value
"C=C(C)[C@@H]1CCC(C)=C[C@H]1c1c(O)cc(CCC)cc1O [CBDV, Cannabidivarin]","audiogenic seizures, maximum response: Clonic seizure","Fmr1 KO and WT mice; 2 mg/kg, 0.5 h",0
same,"audiogenic seizures, maximum response: No response","Fmr1 KO and WT mice; 2 mg/kg, 0.5 h",2
same,"audiogenic seizures, maximum response: Tonic seizure","Fmr1 KO and WT mice; 2 mg/kg, 0.5 h",2
same,"audiogenic seizures, maximum response: Wild running","Fmr1 KO and WT mice; 2 mg/kg, 0.5 h",1
same,"audiogenic seizures, maximum response: Clonic seizure","Fmr1 KO and WT mice; 10 mg/kg, 0.5 h",0
same,"audiogenic seizures, maximum response: No response","Fmr1 KO and WT mice; 10 mg/kg, 0.5 h",0
same,"audiogenic seizures, maximum response: Tonic seizure","Fmr1 KO and WT mice; 10 mg/kg, 0.5 h",2
same,"audiogenic seizures, maximum response: Wild running","Fmr1 KO and WT mice; 10 mg/kg, 0.5 h",3
same,"audiogenic seizures, maximum response: Clonic seizure","Fmr1 KO and WT mice; 20 mg/kg, 0.5 h",0
same,"audiogenic seizures, maximum response: No response","Fmr1 KO and WT mice; 20 mg/kg, 0.5 h",2
same,"audiogenic seizures, maximum response: Tonic seizure","Fmr1 KO and WT mice; 20 mg/kg, 0.5 h",2
same,"audiogenic seizures, maximum response: Wild running","Fmr1 KO and WT mice; 20 mg/kg, 0.5 h",1
same,"audiogenic seizures, maximum response: Clonic seizure","Fmr1 KO and WT mice; 100 mg/kg, 0.5 h",0
same,"audiogenic seizures, maximum response: No response","Fmr1 KO and WT mice; 100 mg/kg, 0.5 h",5
same,"audiogenic seizures, maximum response: Tonic seizure","Fmr1 KO and WT mice; 100 mg/kg, 0.5 h",0
same,"audiogenic seizures, maximum response: Wild running","Fmr1 KO and WT mice; 100 mg/kg, 0.5 h",0
same,"audiogenic seizures, maximum response: Death","Fmr1 KO and WT mice; FXS (Fmr1 KO), CBDV 2 mg/kg, n = 5, acute (30 min)",0
same,"audiogenic seizures, maximum response: Death","Fmr1 KO and WT mice; FXS (Fmr1 KO), CBDV 10 mg/kg, n = 5, acute (30 min)",0
same,"audiogenic seizures, maximum response: Death","Fmr1 KO and WT mice; FXS (Fmr1 KO), CBDV 20 mg/kg, n = 5, acute (30 min)",0
same,"audiogenic seizures, maximum response: Death","Fmr1 KO and WT mice; FXS (Fmr1 KO), CBDV 100 mg/kg, n = 5, acute (30 min)",0
same,audiogenic seizures,"Fmr1 KO and WT mice; 100 mg/kg acute, 100 mg/kg",remained seizure free; also recorded: completely eliminate the seizures
same,audiogenic seizures,Fmr1 KO and WT mice; lower doses,seizures of varying severity
same,"audiogenic seizures, maximum response: Clonic seizure",Fmr1 KO and WT mice; [3],0
same,"audiogenic seizures, maximum response: Death",Fmr1 KO and WT mice; [3],0
same,"audiogenic seizures, maximum response: No response",Fmr1 KO and WT mice; [3],6
same,"audiogenic seizures, maximum response: Tonic seizure",Fmr1 KO and WT mice; [3],0
same,"audiogenic seizures, maximum response: Wild running",Fmr1 KO and WT mice; [3],0
same,"audiogenic seizures, maximum response: Clonic seizure",Fmr1 KO and WT mice; [4],0
same,"audiogenic seizures, maximum response: Death",Fmr1 KO and WT mice; [4],0
same,"audiogenic seizures, maximum response: No response",Fmr1 KO and WT mice; [4],5
same,"audiogenic seizures, maximum response: Tonic seizure",Fmr1 KO and WT mice; [4],0
same,"audiogenic seizures, maximum response: Wild running",Fmr1 KO and WT mice; [4],0
same,"audiogenic seizures, maximum response: Clonic seizure",Fmr1 KO and WT mice; [5],0
same,"audiogenic seizures, maximum response: Death",Fmr1 KO and WT mice; [5],0
same,"audiogenic seizures, maximum response: No response",Fmr1 KO and WT mice; [5],5
same,"audiogenic seizures, maximum response: Tonic seizure",Fmr1 KO and WT mice; [5],0
same,"audiogenic seizures, maximum response: Wild running",Fmr1 KO and WT mice; [5],1
same,"audiogenic seizures, maximum response: Clonic seizure",Fmr1 KO and WT mice; [6],0
same,"audiogenic seizures, maximum response: Death",Fmr1 KO and WT mice; [6],0
same,"audiogenic seizures, maximum response: No response",Fmr1 KO and WT mice; [6],6
same,"audiogenic seizures, maximum response: Tonic seizure",Fmr1 KO and WT mice; [6],0
same,"audiogenic seizures, maximum response: Wild running",Fmr1 KO and WT mice; [6],0
same,discrimination index,Ube3am-/p+ (AS) mice [1],significantly increased
same,mobility,MeCP2 KO mice,reached statistical significance only at PND 64
same,breathing,"MeCP2 KO mice; 2 mg/kg, PND 56 to 60",significantly improve
same,tremors,"MeCP2 KO mice; 2 mg/kg, PND 63",still protective
same,total symptom score,"MeCP2 KO mice; 2 mg/kg, every time point (PND 45, 47, 49, 55, 56, 57, 58, 60 and 64)",significantly improved
same,general conditions (coat and eyes conditions),"MeCP2 KO mice; 20 mg/kg, PND 52",significantly effective only at the earlier time point
same,hindlimb clasping,MeCP2 KO mice; 200 mg/kg,did not significantly affect
same,gait,"MeCP2 KO mice; 200 mg/kg, PND 53 to 57",significantly improved
same,tremors,"MeCP2 KO mice; 200 mg/kg, PND 55 and 63",still able to reduce tremors
same,breathing,"MeCP2 KO mice; 200 mg/kg, PND 57 and 60",effective
same,total symptom score,"MeCP2 KO mice; 200 mg/kg, from PND 47 until PND 58",beneficial effect
same,general conditions (coat and eyes conditions),"MeCP2 KO mice; 2 and 200 mg/kg, PND 52-64",significantly improved
same,tremors,"MeCP2 KO mice; all three doses, PND 45-49",significantly delaying and reducing
same,total symptom score: appearance of the phenotype,"MeCP2 KO mice; all three doses, vs KO-vehicle",delay and attenuate
same,hindlimb clasping,"MeCP2 KO mice; lower doses, PND 47 and 49",significantly attenuate
same,latency to fall,Ube3am-/p+ (AS) mice [2],reduced
